In US20240368163A1, “COMPOUNDS AND METHODS FOR MODULATING SPLICING” (REMIX THERAPEUTICS INC., priority 2021, published 2024):

Tests used:
Format in all cases: cell-based, human
[1] = test system: HTT; assay: HiBiT protein abundance assay, HTT; conditions: Homo sapiens, K562, 24 h, Table 13B, modified K562 cells
Method in brief: (§1)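 Tagged-target degradation assay: HiBiT-modified K562 cells treated 24 h with compound, 10 concentrations up to 10 μM final. Following lysis with LgBiT and substrate, luminescence gave normalized abundance; IC50 derived by logistic interpolation at 50%.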

[2] = test system: Target C; assay: HiBiT protein abundance assay, Target C; conditions: Homo sapiens, K562, 24 h, Table 13B, modified K562 cells
Method in brief: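 Target tagged with HiBiT by knock-in; 24 h dosing, 10 μM top final in 3-fold steps. IC50 from 4PL fit of normalized luminescence.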

[3] = test system: HTT; assay: Splicing RT-qPCR assay, HTT mRNA canonical junction (CJ) and alternative junction (AJ); conditions: Homo sapiens, gene panel, CJ qPCR, protocol of Example 142; read-out: HTT IC50 (decrease in CJ mRNA levels)
Method in brief: (§2)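 Cells: A673 (DMEM/10% FBS) or K562 (IMDM/10% FBS). Dose: 11-pt 3-fold, top 10 uM final, ≤0.25% DMSO, 24 h, 37 °C. Readout: RT-qPCR of CJ/AJ exon junctions, ΔΔCt vs housekeeper and DMSO, RQ to % response.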

[4] = test system: Target C; assay: Splicing RT-qPCR panel, Target C canonical junction (CJ) mRNA; conditions: Homo sapiens, gene panel, CJ qPCR, protocol of Example 142; read-out: Target C IC50 (decrease in CJ mRNA levels)
Method in brief: as §2

[5] = test system: MYB; assay: HiBiT protein abundance assay, MYB; conditions: Homo sapiens, K562, 24 h, Table 13B, modified K562 cells
Method in brief: as §1

[6] = test system: MYB; assay: Splicing RT-qPCR assay, MYB mRNA canonical junction (CJ) and alternative junction (AJ); conditions: Homo sapiens, gene panel, CJ qPCR, protocol of Example 142; read-out: MYB IC50 (decrease in CJ mRNA levels)
Method in brief: as §2

[7] = test system: SMN2; assay: Splicing RT-qPCR panel, SMN2 canonical junction (CJ) mRNA; conditions: Homo sapiens, gene panel, CJ qPCR, protocol of Example 142; read-out: SMN2 IC50 (decrease in CJ mRNA levels)
Method in brief: as §2

COc1nc(-c2ccc(N(C)C3CC(C)(C)NC(C)(C)C3)nn2)ccc1-n1cccn1 [Compound 935]
IC50 [1]: 100 to 1000 nM | IC50 [2]: 100 to 1000 nM | IC50 [3]: 100 to 1000 nM | IC50 [4]: 100 to 1000 nM | IC50 [5]: 100 to 1000 nM | IC50 [6]: 100 to 1000 nM | IC50 [7]: 100 to 1000 nM

CNc1nc(-c2ccc(N(C)[C@@H]3C[C@H]4CC[C@@H](C3)N4)nn2)ccc1-c1cn[nH]c1 [Compound 936]
IC50 [1]: 100 to 1000 nM | IC50 [2]: 100 to 1000 nM | IC50 [3]: 100 to 1000 nM | IC50 [4]: 100 to 1000 nM | IC50 [5]: 100 to 1000 nM | IC50 [6]: 1000 to 10000 nM | IC50 [7]: < 100 nM

CC(C)Oc1nc(-c2ccc(N(C)[C@@H]3C[C@H]4CC[C@@H](C3)N4)nn2)ccc1-c1cn[nH]c1 [Compound 937]
IC50 [1]: 100 to 1000 nM | IC50 [2]: 1000 to 10000 nM | IC50 [3]: 100 to 1000 nM | IC50 [4]: 1000 to 10000 nM | IC50 [5]: 100 to 1000 nM | IC50 [6]: 100 to 1000 nM | IC50 [7]: < 100 nM

CN(C)c1nc(-c2ccc(N(C)[C@@H]3C[C@H]4CC[C@@H](C3)N4)nn2)ccc1-c1cn[nH]c1 [Compound 938]
IC50 [1]: 1000 to 10000 nM | IC50 [2]: 1000 to 10000 nM | IC50 [3]: 1000 to 10000 nM | IC50 [4]: 1000 to 10000 nM | IC50 [5]: 1000 to 10000 nM | IC50 [6]: > 10000 nM | IC50 [7]: 1000 to 10000 nM

COc1nc(-c2ccc(NC3CCNCC3)nn2)ccc1-n1cccn1 [Compound 941]
IC50 [1]: > 10000 nM | IC50 [2]: > 10000 nM | IC50 [3]: > 10000 nM | IC50 [4]: > 10000 nM | IC50 [5]: > 10000 nM | IC50 [6]: > 10000 nM | IC50 [7]: 1000 to 10000 nM

COc1nc(-c2ccc(N[C@@H]3C[C@H]4CC[C@@H](C3)N4)nn2)ccc1-c1cnn(C)n1 [Compound 942]
IC50 [1]: < 100 nM | IC50 [2]: 100 to 1000 nM | IC50 [3]: 1000 to 10000 nM | IC50 [4]: 1000 to 10000 nM | IC50 [5]: 100 to 1000 nM | IC50 [6]: > 10000 nM | IC50 [7]: < 100 nM

COc1nc(-c2ccc(O[C@@H]3C[C@H]4CC[C@@H](C3)N4)nn2)ccc1-c1cn(C)nn1 [Compound 943]
IC50 [1]: 1000 to 10000 nM | IC50 [2]: > 10000 nM | IC50 [3]: 1000 to 10000 nM | IC50 [4]: > 10000 nM | IC50 [5]: 1000 to 10000 nM | IC50 [6]: > 10000 nM | IC50 [7]: > 10000 nM

COc1nc(-c2ccc(N[C@@H]3C[C@H]4CC[C@@H](C3)N4)nn2)ccc1-c1cn(C)nn1 [Compound 944]
IC50 [1]: 1000 to 10000 nM | IC50 [2]: 1000 to 10000 nM | IC50 [3]: 100 to 1000 nM | IC50 [4]: 1000 to 10000 nM | IC50 [5]: 100 to 1000 nM | IC50 [6]: 1000 to 10000 nM | IC50 [7]: 100 to 1000 nM

COc1nc(-c2ccc(N(C)[C@@H]3C[C@H]4CC[C@@H](C3)N4)nn2)ccc1-c1cn(C)nn1 [Compound 945]
IC50 [1]: 100 to 1000 nM | IC50 [2]: 100 to 1000 nM | IC50 [3]: 100 to 1000 nM | IC50 [4]: 1000 to 10000 nM | IC50 [5]: 100 to 1000 nM | IC50 [6]: 1000 to 10000 nM | IC50 [7]: < 100 nM

COc1nc(-c2ccc(OC3CC(C)(C)NC(C)(C)C3)nn2)ccc1-c1cn(C)nn1 [Compound 946]
IC50 [1]: 1000 to 10000 nM | IC50 [2]: > 10000 nM | IC50 [3]: 1000 to 10000 nM | IC50 [4]: > 10000 nM | IC50 [5]: 1000 to 10000 nM | IC50 [6]: 1000 to 10000 nM | IC50 [7]: 100 to 1000 nM

COc1nc(-c2ccc(N[C@@H]3C[C@H]4CC[C@@H](C3)N4)nn2)ccc1-n1cccn1 [Compound 948]
IC50 [1]: 100 to 1000 nM | IC50 [2]: 100 to 1000 nM | IC50 [3]: 100 to 1000 nM | IC50 [4]: 1000 to 10000 nM | IC50 [5]: 100 to 1000 nM | IC50 [6]: 1000 to 10000 nM | IC50 [7]: 100 to 1000 nM

COc1nc(-c2ccc(OC3CC4CCC(C3)N4)nn2)ccc1-n1cccn1 (centres unmarked) [Compound 949]
IC50 [1]: 1000 to 10000 nM | IC50 [2]: 1000 to 10000 nM | IC50 [3]: 1000 to 10000 nM | IC50 [4]: > 10000 nM | IC50 [5]: 1000 to 10000 nM | IC50 [6]: > 10000 nM | IC50 [7]: 1000 to 10000 nM

COc1nc(-c2ccc(N(C)[C@@H]3C[C@H]4CC[C@@H](C3)N4)nn2)ccc1-c1cnc(C)cn1 [Compound 950]
IC50 [1]: 100 to 1000 nM | IC50 [2]: 100 to 1000 nM | IC50 [3]: 100 to 1000 nM | IC50 [4]: 1000 to 10000 nM | IC50 [5]: 100 to 1000 nM | IC50 [6]: 100 to 1000 nM | IC50 [7]: < 100 nM

COc1cnc(-c2ccc(-c3ccc(N(C)[C@@H]4C[C@H]5CC[C@@H](C4)N5)nn3)nc2OC)cn1 [Compound 951]
IC50 [1]: < 100 nM | IC50 [2]: 100 to 1000 nM | IC50 [3]: 100 to 1000 nM | IC50 [4]: 100 to 1000 nM | IC50 [5]: 100 to 1000 nM | IC50 [6]: 100 to 1000 nM | IC50 [7]: 100 to 1000 nM

COc1nc(-c2ccc(N3CCC(NC(C)(C)C)C3)nn2)ccc1-n1cccn1 (centres unmarked) [Compound 957]
IC50 [1]: 1000 to 10000 nM | IC50 [2]: 1000 to 10000 nM | IC50 [3]: 1000 to 10000 nM | IC50 [4]: 1000 to 10000 nM | IC50 [5]: 1000 to 10000 nM | IC50 [6]: 1000 to 10000 nM | IC50 [7]: 1000 to 10000 nM

COc1nc(-c2ccc(N3CCC(NC4CC4)C3)nn2)ccc1-n1cccn1 (centres unmarked) [Compound 958]
IC50 [1]: > 10000 nM | IC50 [2]: > 10000 nM | IC50 [3]: > 10000 nM | IC50 [4]: > 10000 nM | IC50 [5]: > 10000 nM | IC50 [6]: > 10000 nM | IC50 [7]: 1000 to 10000 nM

COc1cc(-c2ccc(-c3ccc(N(C)[C@@H]4C[C@H]5CC[C@@H](C4)N5)nn3)nc2OC)cnn1 [Compound 959]
IC50 [1]: < 100 nM | IC50 [2]: 100 to 1000 nM | IC50 [3]: < 100 nM | IC50 [4]: 100 to 1000 nM | IC50 [5]: 100 to 1000 nM | IC50 [6]: 100 to 1000 nM | IC50 [7]: < 100 nM

COc1nc(-c2ccc(N(C)[C@@H]3C[C@H]4CC[C@@H](C3)N4)nn2)ccc1-c1cnnc(C)c1 [Compound 960]
IC50 [1]: 1000 to 10000 nM | IC50 [2]: > 10000 nM | IC50 [3]: 1000 to 10000 nM | IC50 [4]: 1000 to 10000 nM | IC50 [5]: 1000 to 10000 nM | IC50 [6]: 1000 to 10000 nM | IC50 [7]: 100 to 1000 nM

COc1nc(-c2ccc(O[C@@H]3C[C@H]4CC[C@@H](C3)N4)nn2)ccc1-c1ccnc(C)c1 [Compound 963]
IC50 [1]: 1000 to 10000 nM | IC50 [2]: > 10000 nM | IC50 [3]: 1000 to 10000 nM | IC50 [4]: > 10000 nM | IC50 [5]: 1000 to 10000 nM | IC50 [6]: 1000 to 10000 nM | IC50 [7]: 1000 to 10000 nM

COc1nc(-c2ccc(OC3CC4CC(F)(F)C(C3)N4)nn2)ccc1-c1ccnc(C)c1 (centres unmarked) [Compound 964]
IC50 [1]: > 10000 nM | IC50 [2]: > 10000 nM | IC50 [3]: > 10000 nM | IC50 [4]: > 10000 nM | IC50 [5]: > 10000 nM | IC50 [6]: > 10000 nM | IC50 [7]: > 10000 nM

CC1(C)CC(Oc2ccc(-c3ccc(-c4cn[nH]c4)c(OC4CC4)n3)nn2)CC(C)(C)N1 [Compound 968]
IC50 [1]: 100 to 1000 nM | IC50 [2]: 1000 to 10000 nM | IC50 [3]: 100 to 1000 nM | IC50 [4]: 1000 to 10000 nM | IC50 [5]: 1000 to 10000 nM | IC50 [6]: 1000 to 10000 nM | IC50 [7]: 100 to 1000 nM

CCOc1nc(-c2ccc(OC3CC4CC(F)(F)C(C3)N4)nn2)ccc1-c1cn[nH]c1 (centres unmarked) [Compound 970]
IC50 [1]: > 10000 nM | IC50 [2]: > 10000 nM | IC50 [3]: > 10000 nM | IC50 [4]: > 10000 nM | IC50 [5]: > 10000 nM | IC50 [6]: > 10000 nM | IC50 [7]: 1000 to 10000 nM

COc1nc(-c2ccc(OC3CC4CC(F)(F)C(C3)N4)nn2)ccc1C1C=CC(F)=C1 (centres unmarked) [Compound 971]
IC50 [1]: 1000 to 10000 nM | IC50 [2]: 1000 to 10000 nM | IC50 [3]: 1000 to 10000 nM | IC50 [4]: 1000 to 10000 nM | IC50 [5]: 1000 to 10000 nM | IC50 [6]: 1000 to 10000 nM | IC50 [7]: 1000 to 10000 nM
